Here are results for one compound from patent US5010095A, “N-(W-substituted alkyl)-'-(imidazol-4-yl)alkyl)guanidine” (Cedona Pharmaceuticals B.V., priority 1986, dated 1991).

Experiment [1] has as its target T1, histamine H2 (guinea-pig gastric fundus) (Cavia porcellus, UniProt P47747).
T1 construct: acid secretion of the isolated gastric fundus of the guinea-pig; from tissue; host or cells: guinea-pig gastric fundus (isolated organ)
The experiment in a line: Histamine H2-activity, acid secretion of the isolated gastric fundus of the guinea-pig. The text has this: (§1) The values for the H1 -activity given are the mean of at least two experiments in quadruplicate, while the values for the H2 -activity result from at least two experiments in duplicate.
Guinea-pig gastric acid secretion (H2)

The target of experiment [2] is T2, histamine H1 (guinea-pig ileum) (Cavia porcellus, UniProt P31389).
T2 construct: from tissue; host or cells: guinea-pig ileum (isolated organ)
The experiment can be described thus: Histamine H1-activity, guinea-pig ileum.
Source text: as §1

The test system of experiment [3] is histamine H2. The note with it: cited from earlier work.

A word on the pEC50: it is the EC50 on a negative log10 scale, so that one unit is a factor of ten. A lower pEC50 goes with a high EC50.

pEC50: −log10 of the molar value. “Also recorded” adds a separate entry of the source.

T1 sequence (P47747 whole entry): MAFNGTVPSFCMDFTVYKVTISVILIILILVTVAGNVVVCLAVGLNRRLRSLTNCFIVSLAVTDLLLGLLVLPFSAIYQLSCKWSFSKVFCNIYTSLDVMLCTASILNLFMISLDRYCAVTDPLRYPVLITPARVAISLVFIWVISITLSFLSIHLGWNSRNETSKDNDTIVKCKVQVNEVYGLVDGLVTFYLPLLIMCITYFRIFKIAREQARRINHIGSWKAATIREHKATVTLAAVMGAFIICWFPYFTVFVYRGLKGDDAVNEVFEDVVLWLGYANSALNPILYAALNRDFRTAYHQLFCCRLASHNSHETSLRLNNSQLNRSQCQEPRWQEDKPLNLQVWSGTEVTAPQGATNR
T2 sequence (P31389 whole entry): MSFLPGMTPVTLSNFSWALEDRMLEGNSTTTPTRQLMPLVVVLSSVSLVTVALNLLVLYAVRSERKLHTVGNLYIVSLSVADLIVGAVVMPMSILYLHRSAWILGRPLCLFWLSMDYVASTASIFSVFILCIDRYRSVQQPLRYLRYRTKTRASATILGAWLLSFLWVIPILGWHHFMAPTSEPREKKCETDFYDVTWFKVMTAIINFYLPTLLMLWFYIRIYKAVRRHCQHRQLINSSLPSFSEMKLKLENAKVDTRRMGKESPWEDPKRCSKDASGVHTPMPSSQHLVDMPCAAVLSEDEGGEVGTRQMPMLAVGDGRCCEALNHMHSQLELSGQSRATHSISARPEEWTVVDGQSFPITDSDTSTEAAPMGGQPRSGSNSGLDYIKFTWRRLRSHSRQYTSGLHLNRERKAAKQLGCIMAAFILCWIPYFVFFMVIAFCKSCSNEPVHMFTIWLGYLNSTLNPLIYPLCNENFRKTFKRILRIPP

With `Cc1[nH]cnc1CSCCNC(=N)NCCCc1c[nH]cn1` [Impromidine, N-[2-(5-methylimidazol-4-ylmethylthio)ethyl]-N'-[3-(imidazol-4-yl)propyl]guanidine, reference compound], in experiment [1], the pEC50 was 8.50. Moreover, in experiment [1] (guinea pig, read-out: Histamine H2-activity, gastric fundus, α (intrinsic activity)), the Emax came to 100%. Besides, the Kb in experiment [2] was 3.16 µM. In addition, in experiment [3] (dependent on the used test system, Proc. VIIIth Internat. Symp. Med. Chem. Uppsala 1985), the “potency relative to histamine” value was 5-800 times. Further, the “stimulation of gastric acid secretion, in words” value in experiment [3] (drawback for clinical use) is “relatively high potency in stimulating the gastric acid secretion”. In experiment [3] (literature), the “histamine H2-agonist character, in words” value is “specific and the most potent histamine H2 -agonist; also recorded: either behaves like a partial or like a complete agonist”.
